This is an account of results in PMC3130898 (Molecular and biochemical parasitology, 2010).

This assay has as its target T1, Oligopeptidase B (OPB) (Leishmania major, UniProt Q4QHU7).
T1 sequence (Q4QHU7 1-731): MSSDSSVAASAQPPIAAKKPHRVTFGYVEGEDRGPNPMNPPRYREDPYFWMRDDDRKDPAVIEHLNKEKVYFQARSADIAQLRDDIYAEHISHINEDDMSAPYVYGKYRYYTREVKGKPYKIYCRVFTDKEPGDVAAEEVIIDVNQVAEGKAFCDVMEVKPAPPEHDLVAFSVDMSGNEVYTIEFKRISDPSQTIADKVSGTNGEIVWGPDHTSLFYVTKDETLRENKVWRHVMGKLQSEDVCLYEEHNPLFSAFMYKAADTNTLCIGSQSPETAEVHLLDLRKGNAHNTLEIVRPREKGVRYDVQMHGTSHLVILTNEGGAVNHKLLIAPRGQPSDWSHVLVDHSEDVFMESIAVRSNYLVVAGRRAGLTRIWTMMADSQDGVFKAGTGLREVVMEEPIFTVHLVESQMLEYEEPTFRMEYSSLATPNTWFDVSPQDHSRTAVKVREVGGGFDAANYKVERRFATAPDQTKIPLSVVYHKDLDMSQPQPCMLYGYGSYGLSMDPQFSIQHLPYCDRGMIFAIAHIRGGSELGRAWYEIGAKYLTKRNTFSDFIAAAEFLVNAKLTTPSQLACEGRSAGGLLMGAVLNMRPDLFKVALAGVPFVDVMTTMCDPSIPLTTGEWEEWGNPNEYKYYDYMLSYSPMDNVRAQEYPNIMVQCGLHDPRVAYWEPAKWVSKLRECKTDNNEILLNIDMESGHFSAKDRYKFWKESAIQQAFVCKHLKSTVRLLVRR
The assay can be described thus: inhibition of Bz-R-AMC cleavage in live promastigotes. Format: cell-based.

For orientation: IC50 means the concentration that gives 50% inhibition. Read a high IC50 as weaker potency. On to `NCCc1ccc(S(=O)(=O)F)cc1` [AEBSF], for which the IC50 is 14.4 µM.
